In patent US20240224994A1, “INSECT REPELLANT FORMULATION AND METHOD OF USING SAME” (United Industries Corporation, priority 2021, published 2024):

Test system: Deer Ticks, Ixodes ricinus
Assay: Efficacy of nootkatone formulations against ticks on human forearm skin (complete protection time)
Type: in vivo
Conditions: FIG. 1; human skin test
Description: The objective of the study was estimate the complete protection time (CPT) of the various repellent formulations against ticks. Complete protection time (CPT) was measured as the length of time from initial application to the First Confirmed Crossing (FCC).
A number of 32 volunteers were selected based on signing of informed consent form and passing the sensitivity test, 24-48 hours before the initiation of the experiment. The volunteers were briefed about the experiment in detail prior to signing the consent form. Test volunteers were instructed to avoid alcohol, tobacco, caffeine, and fragrance products (e.g., perfume, cologne, hair spray, lotion, etc.) at least for 12 hours before, and during the test.
The test substance/positive control (liquid) was applied at 1 ml/600 cm^2±10% deviation. […] The treatment area was calculated by measuring the circumference (cm) of the wrist (B), the circumference (cm) at the elbow-cubital fossa (C) when the arm is extended, and the distance (cm) from the elbow to the wrist (D) The surface area (in cm^2) of skin was calculated by: […]
Fresh ticks were exposed to the treated area one at a time, at regular intervals of 30 minutes until the first crossing or observation were recorded as “not repelled.” The cycle continues until efficacy failure or the end of the study, whichever occurs first. […]

SMILES: OCc1ccccc1 [benzyl alcohol]
- effect of ingredient on CPT of the compositions: effective in prolonging the CPT
